Test results published in patent US12227500B2, “Substituted pyrrolo[2,3-b]pyridines for suppressing toxic endoplasmic reticulum stress” (THE TRUSTEES OF COLUMBIA UNIVERSITY IN THE CITY OF NEW YORK, priority 2018, dated 2025).
Entries after “also recorded” stand apart in the source; their conditions may differ. Read-outs that look alike come from different tables or passages of the source.

Experiments:
[1] = test system: panel of 60 human kinases; experiment: Radiolabeled ATP kinase assay, panel of 60 kinases (Table S5); type: biochemical; conditions: 0.5 μM
Procedure, shortened: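 Compounds at two concentrations, 0.1 μM and 0.5 μM, were screened for inhibition of 60 kinases in cell-free assays read out by radiolabeled ATP.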

[2] = Pharmacokinetics of compound 1 in mice (background); conditions: mouse, in vivo
[3] = Spectrophotometric solubility assay of vehicle formulations (540 nM); type: physicochemical
Experimental: These mixtures were then read on a spectrophotometer at […] to assess optical density, a measure of the transparency of the mixture and an indicator of the formation of precipitates. […] At higher concentrations, these precipitates were visible by eye.
Compounds diluted in different vehicle formulations were added to clear cell culture media at ratios consistent with our in vivo dosing scheme.

[4] = test system: human ALS stem cell-derived motor neurons; experiment: Rescue of CPA toxicity, 6-point dose-response assay (FIG. 2B); type: cell-based
[5] = target: T1, panel of 371 human kinases (Homo sapiens, UniProt P50750); experiment: Radiolabeled ATP kinase assay, panel of 371 kinases (Table S6); type: biochemical; conditions: 0.1 μM, 10 μM ATP, read-out: % Enzyme Activity (relative to DMSO controls)
T1 construct: purchased Reaction Biology Corp
Source text: (§1) ; FIG. 38C). […]. Further targeted analyses, such as genetic knock-down or knock-out, may be warranted to parse the role of these additional kinases in our model of neurodegeneration.

[6] = target: T2, panel of 371 human kinases (Homo sapiens, UniProt Q8TD08); experiment: as above; type: biochemical; conditions: ERK7/MAPK15; 0.1 μM; 10 μM ATP; read-out: % Enzyme Activity (relative to DMSO controls)
T2 construct: purchased Reaction Biology Corp
Source text: as §1

[7] = target: T3, panel of 371 human kinases (Homo sapiens, UniProt P06241); experiment: as above; type: biochemical; conditions: FYN; 0.1 μM; 10 μM ATP; read-out: % Enzyme Activity (relative to DMSO controls)
T3 construct: purchased Reaction Biology Corp
Source text: as §1

[8] = target: T4, panel of 371 human kinases (Homo sapiens, UniProt P54762); experiment: as above; type: biochemical; conditions: EPHB1; 0.1 μM; 10 μM ATP; read-out: % Enzyme Activity (relative to DMSO controls)
T4 construct: purchased Reaction Biology Corp
Source text: as §1

[9] = test system: mouse ES-derived motor neurons; experiment: Western blot of JNK pathway activation in CPA-treated motor neurons; type: cell-based; conditions: 4 h
Experimental: Mouse ES-derived motor neurons were treated with CPA, CPA+ compound 1, or vehicle control (DMSO) for four hours. Cells were then lysed to extract proteins.
Samples were harvested after 4 h of treatment. N=samples from 3 separate motor neuron differentiations treated and lysed separately. Cells from each differentiation were split into three samples, one for each treatment condition. All samples were run concurrently on the same blot. All band intensities were normalized to GAPDH to control for loading, then DMSO and CPA+Compound 1 values were normalized to CPA values for each n. One-way ANOVAs were used to evaluate the overall effects of treatment on JNK phosphorylation (P=0.0009; F=28.33; R2=0.9042) and c-Jun phosphorylation (P<0.0001; F=101.9; R2=0.9714).
Whole mouse embryoid bodies at day 6 of differentiation were treated with CPA (10 μM) and test compounds for 4 h, then lysed and sonicated in ice-cold buffer containing HEPES (50 mM), NaCl (100 mM), Triton-X (1%), SDS (0.1%), DTT (1 mM), EDTA (1 mM), plus protease and phosphatase inhibitor cocktail tablets (Roche). Total protein content was analyzed using a BCA kit according to the manufacturer's instructions (Pierce). […] Samples were run for 4 h at 100V at 4°, then transferred to nitrocellulose membranes using an iBlot dry transfer system (Thermo Fisher). Membranes were blocked with tris-buffered saline (TBS) containing 5% BSA (Cell Signaling Technologies), then incubated with primary antibodies in a buffer containing 5% BSA and 0.1% Tween in TBS overnight at 4°. Primary antibodies against phospho-c-Jun (serine 63; Cell Signaling Technologies #9261) were added at 1:500; primary antibodies against phospho-JNK (thr183/tyr185; Cell Signaling Technologies #4688) were added at 1:1000; primary antibodies against GAPDH (Santa Cruz Biotechnologies) were added at 1:1000 as a loading control. Following washes in TBS containing 0.1% Tween, membranes were incubated in goat anti-rabbit HRP-conjugated secondary antibody solutions (1:10,000; Santa Cruz Biotechnologies) for 1 hr. Membranes were then washed again in TBS containing 0.1% Tween, then incubated in Femto ECL (Pierce) for 5 min. Chemiluminescence was visualized using a LiCor Odyssey. Phospho-c-Jun and phopsho-JNK band intensities were normalized to GAPDH.

[10] = target: HGK/MAP4K4 (Homo sapiens, UniProt O95819); conditions: cited from earlier work
[11] = test system: targets of cyclin-dependent kinases and mitogen activated kinases; experiment: Target engagement in CNS, per os 7 days (phosphoprotein blot of brain); type: in vivo, mouse; conditions: 5 or 10 mg/kg
Experimental: To explore the target engagement in CNS for compound 12k, compounds 1 and 12k were administered continuously per os to wild-type mice (n=3 per treatment). […] Fresh brain samples were harvested after 7 days of treatment. Reduced brain samples were separated by SDS-PAGE and probed with an antibody that recognizes phosphoproteins that have been phosphorylated at motifs corresponding to the targets of cyclin-dependent kinases and mitogen activated kinases.

[12] = test system: phospho-cjun; experiment: Phospho-cjun in olfactory bulbs after treatment in vivo (western blot); parameters: species or system mouse; conditions: 10 mg/kg oral gavage
Experimental: Compounds at 10 mg/kg were delivered intraperitoneally (IP), orally, or sub-cutaneously (SC). Animals were sacrificed 1 h after treatment. Their olfactory bulbs were dissected and lysed for western blot analysis. Phospho-cjun expression was normalized to the housekeeping protein GAPDH.
We therefore selected phospho-cjun as a marker of target engagement for further in vivo studies. C-jun is highly expressed throughout the murine central nervous system, especially in the olfactory bulbs. […] Animals were then sacrificed after 1 h, and their olfactory bulbs were sub-dissected and lysed for further western blot analysis. Samples were probed with an antibody specific to phosphorylated c-jun (at serine 63; cell signaling) and normalized to the housekeeping gene GAPDH.

[13] = test system: panel of 371 human kinases; experiment: Radiolabeled ATP kinase assay, panel of 371 kinases (Table S6); type: biochemical; conditions: 0.1 μM, 10 μM ATP
Source text: as §1

T1 sequence (P50750 whole entry): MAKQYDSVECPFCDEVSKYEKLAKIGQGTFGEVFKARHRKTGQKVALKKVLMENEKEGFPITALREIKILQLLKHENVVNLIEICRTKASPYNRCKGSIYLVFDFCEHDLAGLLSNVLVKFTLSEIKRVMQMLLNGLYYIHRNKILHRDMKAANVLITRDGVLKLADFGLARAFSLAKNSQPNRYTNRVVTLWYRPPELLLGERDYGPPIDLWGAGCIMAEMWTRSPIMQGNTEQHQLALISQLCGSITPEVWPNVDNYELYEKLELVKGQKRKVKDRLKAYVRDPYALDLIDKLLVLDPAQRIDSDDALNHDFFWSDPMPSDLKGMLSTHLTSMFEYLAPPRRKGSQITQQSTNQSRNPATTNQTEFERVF
T2 sequence (Q8TD08 whole entry): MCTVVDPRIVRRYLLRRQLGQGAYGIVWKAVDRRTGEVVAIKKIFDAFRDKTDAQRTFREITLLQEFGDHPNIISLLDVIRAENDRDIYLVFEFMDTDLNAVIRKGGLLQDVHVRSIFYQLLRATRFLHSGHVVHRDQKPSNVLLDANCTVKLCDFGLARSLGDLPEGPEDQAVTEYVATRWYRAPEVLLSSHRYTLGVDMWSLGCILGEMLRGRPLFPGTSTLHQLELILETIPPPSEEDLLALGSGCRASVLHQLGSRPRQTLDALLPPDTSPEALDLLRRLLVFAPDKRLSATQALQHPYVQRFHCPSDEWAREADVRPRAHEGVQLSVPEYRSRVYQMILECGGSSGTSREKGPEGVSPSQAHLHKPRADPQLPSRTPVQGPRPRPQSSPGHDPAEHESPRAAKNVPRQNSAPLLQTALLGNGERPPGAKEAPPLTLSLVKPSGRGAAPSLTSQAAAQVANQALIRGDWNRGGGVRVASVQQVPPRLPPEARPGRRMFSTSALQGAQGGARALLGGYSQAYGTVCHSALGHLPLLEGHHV
HGK/MAP4K4, sequence (O95819 whole entry, species assumed): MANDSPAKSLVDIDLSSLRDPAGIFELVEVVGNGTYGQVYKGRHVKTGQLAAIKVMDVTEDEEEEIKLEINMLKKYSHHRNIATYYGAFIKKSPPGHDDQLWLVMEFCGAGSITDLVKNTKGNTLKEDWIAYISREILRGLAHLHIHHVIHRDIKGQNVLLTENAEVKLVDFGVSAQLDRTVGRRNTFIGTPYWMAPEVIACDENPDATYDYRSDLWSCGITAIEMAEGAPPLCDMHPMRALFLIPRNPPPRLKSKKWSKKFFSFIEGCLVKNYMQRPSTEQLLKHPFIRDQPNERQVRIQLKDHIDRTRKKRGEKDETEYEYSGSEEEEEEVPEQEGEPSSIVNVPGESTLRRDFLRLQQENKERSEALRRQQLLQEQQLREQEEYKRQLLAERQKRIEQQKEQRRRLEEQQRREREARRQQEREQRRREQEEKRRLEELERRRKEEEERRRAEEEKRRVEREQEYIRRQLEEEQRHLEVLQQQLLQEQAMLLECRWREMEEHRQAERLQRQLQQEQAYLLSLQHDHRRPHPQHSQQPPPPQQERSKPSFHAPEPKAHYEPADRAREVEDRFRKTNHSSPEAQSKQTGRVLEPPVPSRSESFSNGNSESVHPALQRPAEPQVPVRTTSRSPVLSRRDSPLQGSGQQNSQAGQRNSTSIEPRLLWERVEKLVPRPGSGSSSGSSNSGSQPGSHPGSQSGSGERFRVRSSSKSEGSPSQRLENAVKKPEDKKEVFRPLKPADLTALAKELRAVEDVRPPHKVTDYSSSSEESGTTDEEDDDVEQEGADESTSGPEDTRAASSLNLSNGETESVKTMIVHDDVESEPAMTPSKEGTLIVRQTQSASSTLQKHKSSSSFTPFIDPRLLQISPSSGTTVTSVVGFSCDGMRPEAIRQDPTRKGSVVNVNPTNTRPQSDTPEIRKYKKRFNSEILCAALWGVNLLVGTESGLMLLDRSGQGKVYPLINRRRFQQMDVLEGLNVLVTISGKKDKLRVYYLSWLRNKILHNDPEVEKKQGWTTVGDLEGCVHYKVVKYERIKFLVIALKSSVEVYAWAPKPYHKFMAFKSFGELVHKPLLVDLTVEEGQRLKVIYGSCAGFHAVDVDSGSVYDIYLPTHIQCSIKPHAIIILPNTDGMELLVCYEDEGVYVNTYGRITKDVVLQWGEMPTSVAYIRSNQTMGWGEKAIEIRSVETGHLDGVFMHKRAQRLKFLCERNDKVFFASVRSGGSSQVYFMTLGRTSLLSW
T3 sequence (P06241 whole entry): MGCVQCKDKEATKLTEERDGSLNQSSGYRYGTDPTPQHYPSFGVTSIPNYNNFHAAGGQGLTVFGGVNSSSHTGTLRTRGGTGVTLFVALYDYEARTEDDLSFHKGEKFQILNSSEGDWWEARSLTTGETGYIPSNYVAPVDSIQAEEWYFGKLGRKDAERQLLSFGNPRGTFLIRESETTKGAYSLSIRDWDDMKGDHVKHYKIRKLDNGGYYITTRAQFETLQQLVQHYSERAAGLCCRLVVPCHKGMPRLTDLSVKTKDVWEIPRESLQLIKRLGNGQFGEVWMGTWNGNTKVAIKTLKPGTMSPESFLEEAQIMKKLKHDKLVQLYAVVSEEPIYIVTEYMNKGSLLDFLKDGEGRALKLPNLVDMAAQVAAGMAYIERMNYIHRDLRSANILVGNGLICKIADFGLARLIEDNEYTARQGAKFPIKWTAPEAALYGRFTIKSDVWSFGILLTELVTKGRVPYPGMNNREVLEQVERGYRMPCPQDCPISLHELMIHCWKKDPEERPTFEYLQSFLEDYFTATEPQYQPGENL
T4 sequence (P54762 18-984): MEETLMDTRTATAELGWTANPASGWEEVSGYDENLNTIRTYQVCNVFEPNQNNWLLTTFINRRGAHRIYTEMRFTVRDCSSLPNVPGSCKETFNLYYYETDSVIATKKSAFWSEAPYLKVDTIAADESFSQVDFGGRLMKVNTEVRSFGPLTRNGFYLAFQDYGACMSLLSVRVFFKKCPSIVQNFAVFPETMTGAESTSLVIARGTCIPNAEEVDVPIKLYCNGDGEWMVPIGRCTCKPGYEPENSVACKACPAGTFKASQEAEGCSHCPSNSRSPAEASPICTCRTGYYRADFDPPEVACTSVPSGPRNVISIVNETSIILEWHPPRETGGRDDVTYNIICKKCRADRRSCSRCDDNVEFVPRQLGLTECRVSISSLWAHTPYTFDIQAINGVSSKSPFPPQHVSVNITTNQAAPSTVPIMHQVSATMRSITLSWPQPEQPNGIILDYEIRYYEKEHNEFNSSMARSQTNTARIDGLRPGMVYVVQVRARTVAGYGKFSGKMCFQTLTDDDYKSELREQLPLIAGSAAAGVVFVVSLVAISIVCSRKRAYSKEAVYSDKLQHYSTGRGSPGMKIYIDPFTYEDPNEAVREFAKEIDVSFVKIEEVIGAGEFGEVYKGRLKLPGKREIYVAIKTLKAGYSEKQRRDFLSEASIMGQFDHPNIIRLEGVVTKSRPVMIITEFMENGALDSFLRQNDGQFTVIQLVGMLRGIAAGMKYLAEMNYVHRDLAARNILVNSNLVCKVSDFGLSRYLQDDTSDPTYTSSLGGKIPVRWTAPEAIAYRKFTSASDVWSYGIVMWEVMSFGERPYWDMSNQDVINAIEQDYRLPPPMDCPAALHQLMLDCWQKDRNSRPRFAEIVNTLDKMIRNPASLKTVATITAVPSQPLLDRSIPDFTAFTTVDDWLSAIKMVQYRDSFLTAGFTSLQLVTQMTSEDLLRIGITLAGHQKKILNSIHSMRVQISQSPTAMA

## CN1CCN(Cc2ccc(-c3cnc4[nH]cc(-c5ccc6[nH]ccc6c5)c4c3)cc2)CC1 [Compound 1, 3-(1H-Indol-5-yl)-5-(4-((4-methylpiperazin-1-yl)methyl)phenyl)-1H-pyrrolo[2,3-b]pyridine, reference compound]
[1]
  number of the 60 kinases strongly inhibited (<20% residual activity): 27
[2]
  half-life: 2 to 3 h
[3]; 11% 2-hydroxypropyl-β-cyclodextrin
  solubility after adding 2-hydroxypropyl-β-cyclodextrin to the vehicle: fully solubilize
[3]; formulation 55% saline, 40% PEG-400, 5% DMSO
  solubility in cell culture media: highly insoluble
[4]
  cellular potency: > 100 nM
[4]; 33 μM CPA
  concentrations showing protective effects: ≥ 100 nM
[4]; 33 μM CPA, 0.01 μM-3 μM
  concentration that completely reversed CPA-induced neurodegeneration: 1 µM
[5]; CDK9/cyclin K
  remaining activity at 0.1 µM: 79.8%
[5]; CDK9/cyclin T1
  remaining activity at 0.1 µM: 86%
[5]; CDK9/cyclin T2
  remaining activity at 0.1 µM: 112%
[6]
  remaining activity at 0.1 µM: 109%
[7]
  remaining activity at 0.1 µM: 92.1%
[8]
  remaining activity at 0.1 µM: 83%
[9]
  JNK phosphorylation in CPA-treated motor neurons: strongly attenuated; also recorded: significantly decreased JNK phosphorylation
  MKK4 phosphorylation in CPA-treated MNs: strongly attenuated
  c-Jun phosphorylation in CPA-treated motor neurons: strongly suppressed; also recorded: below the threshold of detection
  caspase 3 cleavage in CPA-treated MNs: strongly suppressed
[10]; 1 μM treatment
  HGK enzyme activity remaining: 0.54%
[10]; 1 μM, Goodfellow et al. 2013
  inhibition of HGK activity in a cell-free assay: > 99%

## CN1CCN(Cc2ccc(-c3cnc4[nH]cc(-c5cccc(Cl)c5)c4c3)cc2)CC1 [Compound 7ad, 3-(3-Chlorophenyl)-5-(4-((4-methylpiperazin-1-yl)methyl)phenyl)-1H-pyrrolo[2,3-b]pyridine]
[1]
  number of the 60 kinases strongly inhibited (<20% residual activity): 12

## OCCN1CCN(Cc2ccc(-c3cnc4[nH]cc(-c5cccc(Cl)c5)c4c3)cc2)CC1 [Compound 12k, 2-(4-(4-(3-(3-Chlorophenyl)-1H-pyrrolo[2,3-b]pyridin-5-yl)benzyl)piperazin-1-yl)ethan-1-ol]
[11]
  intensity of a high molecular weight phosphoprotein band in brain vs vehicle or compound 1: consistently decreased the intensity of a high molecular weight band
[12]
  oral bioavailability (from reduction of cjun phosphorylation after oral gavage): orally bioavailable
[5]; CDK9/cyclin K
  remaining activity at 0.1 µM: 88.5%
[5]; CDK9/cyclin T1
  remaining activity at 0.1 µM: 88.7%
[5]; CDK9/cyclin T2
  remaining activity at 0.1 µM: 99.1%
[6]
  remaining activity at 0.1 µM: 90.4%
[7]
  remaining activity at 0.1 µM: 96.3%
[8]
  remaining activity at 0.1 µM: 98.3%
[13]; LYN B
  % Enzyme Activity (relative to DMSO controls): 89.48%
[13]; PKCb2
  % Enzyme Activity (relative to DMSO controls): 89.45%
[13]; PKG1b
  % Enzyme Activity (relative to DMSO controls): 101.46%
